{"source": "patent US5811073A", "about": "“Method for radioisotopic detection and localization of inflammation in a host” (President and Fellows of Harvard College, priority 1995, dated 1998)", "key": {"[1]": {"settings": "intravenous; adult man; ^123 I-iodine thyroid blocked; cited from earlier work"}, "[2]": {"test_system": "sterile and bacterial inflammation", "settings": "i.v., 200-300 μCi gallium-67 citrate, 300-500 μCi ^99m Tc-human serum albumin, 100-150 μCi ^111 In-IgG or ^125 I-IgG; cited from earlier work"}, "[3]": {"test_system": "sterile inflammatory lesions (pus capsule; turpentine oil)", "assay": "Gamma camera imaging of rats with sterile inflammation", "type": "in vivo, Male Sprague-Dawley rats", "settings": "for Figure of Merit (FOM), equation (1): 0.2 mCi ^67 Ga-citrate; for Figure of Merit (FOM), equation (1) / Pus Capsule to Contralateral Tissue (T/B) Ratio, gamma camera imaging: 1.5 mCi/rat ^123 IUdR; for Figure of Merit (FOM), equation (1) / Pus Capsule to Contralateral Tissue (T/B) Ratio, gamma camera imaging / Figure of Merit (FOM), equation (2): n=4, mean ± SD; for Pus Capsule to Contralateral Tissue (T/B) Ratio, gamma camera imaging: 0.2 mCi/rat ^67 Ga", "experimental": "Male Sprague-Dawley rats weighing between 150-200g were obtained from the Charles River Breeding Laboratories in Burlington, Mass. […] To anaesthetize the animals during testing, ketamine (40 mg/kg) and xylazine (10 mg/kg) were administered intra peritoneally (1.0 ml/kg) prior to surgical procedures. For the imaging studies, each animal received 1.5 ml/kg of a mixture of ketamine (75 mg/kg), xylazine (39 mg/kg) and acepromazine (0.75 mg/kg).\nTo induce a localized sterile inflammation, 0.1 ml of turpentine oil (Rectified Turpentine Oil for medical use, Gentry Corporation, Fair Lawn, N.J.) was injected into the left thigh muscle of anesthetized rats.\nA further set of rats prepared as described in Examples 1 and 2 received intravenous injections of either ^123 IUdR (at a dose of about 1.5 mCi/rat) or gallium-67 citrate (at a dose of about 0.2 mCi/rat). After 1, 3 and 24 hours, rats from each group were anesthetized and imaged using a gamma camera (the General Electric STARCAM™ 400 fitted with parallel hole medium collimator). Anterior images were obtained 10^6 counts/frame except for the 24 h period for ^123 IUdR where a 15 min scan was carried out. A 20% window was present over the 159 keV photopeaks of ^67 Ga (93 kev, 184 keV, and 298 keV).\nRegions of interest (ROI) were drawn over the inflamed areas (3×4 pixel) and over the contralateral area in each rat. Total counts in these regions were used to calculate Target to Background (T/B) ratios and to calculate Figure of Merit (FOM; statistical significance) values using either of the following equations:\nFOM=(At -Ab)^2 /(At +Ab) (1)\nAt =counts in ROI (3×4) over pus capsule; and\nAb =counts in ROI (3×4) over contralateral muscle.\nEquation (1) is derived from the Report of the National Council on Radiation Protection and Measurements, Nuclear Medicine, \"Factors Influencing the Choice and Use of Radionuclides in Diagnosis and Therapy\", Report No. 70, p.79 (NRCP, Bethesda, Md., 1982). Equation (2) is derived from Rubin et al., J. Nucl. Med. 30:385-389, 1989. For purposes of reference, the disclosures of each of these publications is incorporated herein."}, "[4]": {"assay": "Total photon efficiency of gamma camera", "type": "physicochemical", "experimental": "For use in calculating dosages, the relative photon efficiencies of ^123 IUdR and of gallium-67 were determined.\nTotal Photon Efficiency of Gamma Camera\nWith Respect to ^123 IUdR and gallium-67\nkeV* Frequency X Efficiency"}, "[5]": {"test_system": "sterile inflammatory lesions (pus capsule; turpentine oil)", "assay": "Biodistribution (pus capsule to contralateral tissue ratio) in rats with sterile inflammation", "settings": "for Pus Capsule and Contralateral Tissue (T/B) Ratio, biodistribution: sterile inflammation, i.v., 10 μCi/rat ^67 Ga (n=2), 5 μCi/rat ^125 IUdR (n=6), mean ± SD"}}}
{"smiles": "O=C([O-])CC(O)(CC(=O)[O-])C(=O)[O-].[67Ga+3]", "note": "[^67 Ga, gallium-67 citrate]", "values": [{"measurement": "whole body effective dose", "setting": "[1]", "value": 0.44, "unit": "rad/mCi"}, {"measurement": "time of maximum target to background tissue ratio for image intensity", "setting": "[2]", "value": 3, "unit": "h"}, {"measurement": "detection of the lesion in scintigraphic images (in words)", "setting": "[3]; 1, 3, and 24 h, i.v.", "value": "can clearly detect the lesion"}, {"measurement": "Figure of Merit (FOM), equation (1)", "setting": "[3]; 1 h, i.v.", "value": "1037 ± 215"}, {"measurement": "Pus Capsule to Contralateral Tissue (T/B) Ratio, gamma camera imaging", "setting": "[3]; 1 h, i.v.", "value": "2.76 ± 0.18"}, {"measurement": "Figure of Merit (FOM), equation (2)", "setting": "[3]; 1 h, i.v.", "value": "1.75 ± 0.2"}, {"measurement": "Figure of Merit (FOM), equation (1)", "setting": "[3]; 3 h, i.v.", "value": "1581 ± 143"}, {"measurement": "Pus Capsule to Contralateral Tissue (T/B) Ratio, gamma camera imaging", "setting": "[3]; 3 h, i.v.", "value": "3.61 ± 0.15"}, {"measurement": "Figure of Merit (FOM), equation (2)", "setting": "[3]; 3 h, i.v.", "value": "2.61 ± 0.18"}, {"measurement": "efficacy by imaging T/B ratio, comparison of agents (in words)", "setting": "[3]; 3 hrs", "value": "equal"}, {"measurement": "Figure of Merit (FOM), equation (1)", "setting": "[3]; 24 h, i.v.", "value": "1958 ± 149"}, {"measurement": "Pus Capsule to Contralateral Tissue (T/B) Ratio, gamma camera imaging", "setting": "[3]; 24 h, i.v.", "value": "5.09 ± 0.44"}, {"measurement": "Figure of Merit (FOM), equation (2)", "setting": "[3]; 24 h, i.v.", "value": "4.09 ± 0.50"}, {"measurement": "imaging T/B ratios, comparison of agents (in words)", "setting": "[3]; by 24 hrs", "value": "higher T/B ratios"}, {"measurement": "FOM values, comparison of agents (in words)", "setting": "[3]; later time points (3 hrs and 24 hrs)", "value": "equal or higher FOM values"}, {"measurement": "Total Photon Efficiency", "setting": "[4]; 91.3 keV", "value": 0.0296}, {"measurement": "Total Photon Efficiency", "setting": "[4]; 93.3 keV", "value": 0.37}, {"measurement": "Total Photon Efficiency", "setting": "[4]; 184.6 keV", "value": 0.1326}, {"measurement": "Total Photon Efficiency", "setting": "[4]; 209 keV", "value": 0.01515}, {"measurement": "Total Photon Efficiency", "setting": "[4]; 300.2 keV", "value": 0.0415}, {"measurement": "Total Photon Efficiency", "setting": "[4]; sum over photopeaks (^67 Ga), 159 keV (^123 I)", "value": 0.59}, {"measurement": "concentration within lesion (pus capsule) vs contralateral tissues (in words)", "setting": "[5]; sterile inflammation (turpentine oil)", "value": "to a greater extent than in the contralateral tissues"}, {"measurement": "Pus Capsule and Contralateral Tissue (T/B) Ratio, biodistribution", "setting": "[5]; 3 h", "value": "3.55 ± 0.24"}, {"measurement": "Pus Capsule and Contralateral Tissue (T/B) Ratio, biodistribution", "setting": "[5]; 24 h", "value": "2.85 ± 0.64"}]}
